Assay results reported in patent US8632813B2, “Prostaglandin compositions and methods for the treatment of vasospasm” (Nexmed (Holdings), Inc., priority 2003, dated 2014).

Key:
[1] = test system: vasospasm, central artery and vein of the ear; assay: Pilot study of 0.4% PGE1 topical composition on adrenaline-induced ear vasospasm (Example 5, FIG. 1-2); assay type: in vivo, New Zealand rabbit; conditions: 1 mg of PGE1 dissolved in 75% aqueous ethanol on skin of right ear
Source text: The objects of these pilot studies were designed to explore the efficacy of a specially formulated 0.4 wt % PGE1 topical composition for treating vasospasm and skin disorders that result from insufficient local blood circulation. Twenty four adult New Zealand rabbit, 3-4 kg, were divided into three groups: 12 rabbits were assigned into a Test Study Group; 6 rabbits were assigned into a PGE1 Control Group and 6 rabbits were assigned into an Alcohol Control Group. One rabbit of each Group was selected to enter the study at the same time for each of the first six studies.
The rabbit's right ear was selected to be the test application site, while its left ear was observed as a control. An adrenaline solution (0.2 ml of a 0.1% (1:1000) solution) was injected into the area adjacent to both the central artery and vein near the bottom of both ears. Classic vasospasm appeared five minutes later on both ears. One of three test substances, 125 mg of a 0.4% PGE1 topical composition containing 1.8% DDAIP HCl was applied to a 2 cm×2 cm area of skin adjacent to the central artery and vein of the right ear.
Vasospasm was induced in the same way in both ears of the rabbits of the PGE1 Control Group and the Alcohol Control Group. Similarly, 1 mg of PGE1 dissolved in 75% aqueous ethanol, or the 75% aqueous ethanol vehicle alone were applied to the right ears of the rabbits of the PGE1 Control Group and the Alcohol Control Group respectively. The time course of changes in blood vessel diameter was observed.

[2] = test system: vasospasm induced by adrenaline hydrochloride, femoral artery; assay: Ultrasonography of blood flow volume in surgically exposed femoral artery with adrenaline-induced vasospasm (Example 4); assay type: in vivo, New Zealand Rabbits; conditions: four drops of papaverine (30 mg/ml) on exposed femoral artery; for The Average Time Required To Return To The Initial Blood Flow Volume: 120 minute test
Procedure: Rabbits were obtained and anesthetized as described in Example 2, above. A total of 70 rabbits were randomly assigned into 7 groups with 10 rabbits per group. Blood flow velocity and vascular cross section area were measured and analyzed using a Toshiba Multifunction Ultrasonography 6000 system. A portion of femoral artery about 2 cm long was exposed through a 3 cm incision. […] The entire test was performed under a constant room temperature of 20 degrees Celsius. About ten minutes after the application of adrenaline hydrochloride, the operating field was irrigated with sterile saline topically and dried with sterile pad. […] The incision was closed after the application of the topical composition. The ultrasonic probe was put at a fixed location 1 cm from the incision. […] In general, blood flow volume=blood flow velocity×vascular cross section The data were expressed as average±SD; t-test was used for statistical analysis. The averaged data are reported in Table 9, below, as instantaneous blood flow volume±standard deviation (SD), N=10, and shown graphically in FIG. 6.

## CCCCC[C@H](O)/C=C/[C@H]1[C@H](O)CC(=O)[C@@H]1CCCCCCC(=O)O [PGE1 dissolved in 75% aqueous ethanol, Prostaglandin E1]
[1]
  changes of the vascular bed of the right ear: No significant remaining changes were observed
  duration of the dilation effect: 60 min
  time after application at which the vasospasm was alleviated slightly: 20 min
  time until vessels of the right ear were dilated: 30 min

## COc1ccc(Cc2nccc3cc(OC)c(OC)cc23)cc1OC [Papaverine, papaverine]
[2]
  The accumulated blood flow volume from 10 minutes after vasospasm to 120 minutes after drug administration: 2341 ± 94.87 cm^3
  The Average Time Required To Return To The Initial Blood Flow Volume: 5 min
[2]; 5 min after Drug
  instantaneous blood flow volume: 319 ± 13.27 mm^3/s
[2]; 5 min after Vasospasm (before drug)
  instantaneous blood flow volume: 107 ± 4.11 mm^3/s
[2]; 10 min after Drug
  instantaneous blood flow volume: 358 ± 13.95 mm^3/s
[2]; 10 min after Vasospasm (before drug)
  instantaneous blood flow volume: 86 ± 4.76 mm^3/s
[2]; 15 min after Drug
  instantaneous blood flow volume: 402 ± 18.44 mm^3/s
[2]; 30 min after Drug
  instantaneous blood flow volume: 435 ± 17.76 mm^3/s
[2]; 60 min after Drug
  instantaneous blood flow volume: 296 ± 12.58 mm^3/s
[2]; 90 min after Drug
  instantaneous blood flow volume: 287 ± 11.96 mm^3/s
[2]; 120 min after Drug
  instantaneous blood flow volume: 274 ± 10.88 mm^3/s
[2]; listed as papaverine
  The Average Time Required To Return To The Initial Blood Flow Volume: produced recovery of blood flow volume
  The accumulated blood flow volume from 10 minutes after vasospasm to 120 minutes after drug administration: a slightly greater effect that was comparable to that produced by composition comprising 80 μg PGE1
[2]; Normal Condition (before drug)
  instantaneous blood flow volume: 325 ± 9.80 mm^3/s
